These results are taken from patent publication US12479818B2, “Treatment of fibrosis with IRE1 small molecule inhibitors” (Cornell University, priority 2019, dated 2025).

Where only a bound is given, the exact number is not on record here.

The test system of one experiment is 293T cells. Description: Growth assay (cytotoxicity). In kind it is cell-based, human. Particulars: 2 day incubation. As for the experimental part: A growth assay was performed to evaluate the compounds disclosed herein for cytotoxicity. […] 133.3 uL cDMEM was added to wells 1, 2, 3, 5, 6, and 7 in rows A, C, E and G of the dilution plate. Compounds were serially diluted leftwards in threefold dilutions (66.7 uL into 133.3 uL cDMEM). 20 μL of each dilution was transferred in duplicate (duplicates in vertical paired wells) to the cells plated in the 96-well plate shown in Table 5, to the total concentrations shown below. 200 uL cDMEM was added to media wells (wells G5-H8). The plate was then placed in a humidified chamber for a 2 day incubation, and then photographed (media was more yellow in wells with potent cell growth).

The next experiment has as its target IRE1a (Homo sapiens, UniProt O75460). The experiment can be described thus: IRE1a Endoribonuclease Nanoluciferase Assay (XBP1 luciferase reporter in 293T cells). Type of experiment: cell-based. Set-up: endogenous in cells; host or cells: 293T. Particulars: XBP1 nanoluciferase reporter in 293T cells, ER stressor; tested as the salt named. (In general: Reporter assays use an easily measured gene product as a stand-in for the process of interest.)

Chain of IRE1a (O75460 19-977): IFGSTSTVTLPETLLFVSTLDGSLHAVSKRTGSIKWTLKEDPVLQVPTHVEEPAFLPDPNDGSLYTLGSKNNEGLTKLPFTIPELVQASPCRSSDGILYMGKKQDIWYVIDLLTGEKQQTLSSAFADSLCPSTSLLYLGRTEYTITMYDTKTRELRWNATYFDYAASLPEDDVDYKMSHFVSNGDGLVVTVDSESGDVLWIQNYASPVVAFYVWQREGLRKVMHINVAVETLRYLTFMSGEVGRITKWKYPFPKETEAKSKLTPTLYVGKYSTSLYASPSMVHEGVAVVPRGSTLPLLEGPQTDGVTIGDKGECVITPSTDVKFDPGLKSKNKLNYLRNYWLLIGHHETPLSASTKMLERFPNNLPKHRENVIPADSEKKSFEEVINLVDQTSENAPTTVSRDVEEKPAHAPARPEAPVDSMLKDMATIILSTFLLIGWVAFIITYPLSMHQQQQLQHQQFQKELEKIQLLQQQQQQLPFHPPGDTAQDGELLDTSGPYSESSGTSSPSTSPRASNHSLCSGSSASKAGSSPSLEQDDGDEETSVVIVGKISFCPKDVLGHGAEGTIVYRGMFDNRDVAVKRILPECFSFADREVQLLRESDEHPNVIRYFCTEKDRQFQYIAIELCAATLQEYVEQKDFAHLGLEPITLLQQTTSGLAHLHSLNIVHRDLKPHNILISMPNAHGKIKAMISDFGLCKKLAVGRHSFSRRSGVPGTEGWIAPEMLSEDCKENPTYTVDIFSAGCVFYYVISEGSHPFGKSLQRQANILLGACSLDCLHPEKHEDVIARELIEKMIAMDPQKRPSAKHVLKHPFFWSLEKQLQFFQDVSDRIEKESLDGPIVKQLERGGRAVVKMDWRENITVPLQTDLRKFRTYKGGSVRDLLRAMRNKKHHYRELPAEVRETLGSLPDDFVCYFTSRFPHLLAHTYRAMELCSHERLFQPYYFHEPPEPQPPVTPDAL

On to `CCc1cc(-c2ccc(NS(=O)(=O)c3ccccc3Cl)nc2OC)cc2cnc(N[C@H]3CC[C@H](N)CC3)nc12` [Compound 37, N-(5-(2-(((1r,4r)-4-aminocyclohexyl)amino)-8-ethylquinazolin-6-yl)-6-methoxypyridin-2-yl)-2-chlorobenzene-sulfonamide], for which the “% Growth at 0.5556 uM” value in the experiment on 293T cells (0.5556 uM) was “D (D: > 75% to ≤ 100%)”. Moreover, the “% Growth at 1.667 uM” value in the experiment on 293T cells (1.667 uM) is on record as “C (C: > 50% to ≤ 75%)”. Moreover, the “% Growth at 5 uM” value in the experiment on 293T cells (5 uM) is “B (B: > 25% to ≤ 50%)”. For the same compound, at IRE1a, the EC50 was under 5 nM.

Consider `CCc1cc(-c2ccc(NS(=O)(=O)c3ccccc3Cl)nc2C)cc2cnc(N[C@H]3CC[C@H](N(C)CCOC)CC3)nc12` [Compound 132, 2-chloro-N-(5-(8-ethyl-2-(((1r,4r)-4-((2-methoxyethyl)(methyl)amino)cyclohexyl)amino)quinazolin-6-yl)-6-methylpyridin-2-yl)benzenesulfonamide], for which the EC50 on IRE1a was under 5 nM.

Turning to `COc1nc(NS(=O)(=O)c2ccccc2Cl)ccc1-c1cc(C)c2nc(N[C@H]3CC[C@H](N(C)C)CC3)ncc2c1` [Compound 133, 2-chloro-N-(5-(2-(((1r,4r)-4-(dimethylamino)cyclohexyl)amino)-8-methylquinazolin-6-yl)-6-methoxypyridin-2-yl)benzenesulfonamide], the EC50 at IRE1a was under 5 nM.

As to `COc1nc(NS(=O)(=O)c2ccccc2Cl)ccc1-c1cc(C(F)(F)F)c2nc(N[C@H]3CC[C@H](N(C)C)CC3)ncc2c1` [Compound 135, 2-chloro-N-(5-(2-(((1r,4r)-4-(dimethylamino)cyclohexyl)amino)-8-(trifluoromethyl)quinazolin-6-yl)-6-methoxypyridin-2-yl)benzenesulfonamide], at IRE1a, the concentration giving a half-maximal response (EC50) is under 5 nM.

Regarding `COCc1cc(-c2ccc(NS(=O)(=O)c3ccccc3Cl)nc2OC)cc2cnc(N[C@H]3CC[C@H](N(C)C)CC3)nc12` [Compound 137, 2-chloro-N-(5-(2-(((1r,4r)-4-(dimethylamino)cyclohexyl)amino)-8-(methoxymethyl)quinazolin-6-yl)-6-methoxypyridin-2-yl)benzenesulfonamide], on IRE1a, the EC50 was under 5 nM.

With `CCc1cc(-c2ccc(NS(=O)(=O)c3ccccc3Cl)nc2OC)cc2cnc(N[C@H]3CC[C@@H](N(C)C)CC3)nc12` [Compound 141, 2-chloro-N-(5-(2-(((1s,4s)-4-(dimethylamino)cyclohexyl)amino)-8-ethylquinazolin-6-yl)-6-methoxypyridin-2-yl)benzenesulfonamide], the EC50 on IRE1a lay in the range of 100 to 10000 nM.

In the case of `COc1nc(NS(=O)(=O)c2ccccc2Cl)c(F)cc1-c1cc(C)c2nc(N[C@H]3CC[C@H](N(C)C)CC3)ncc2c1` [Compound 145, 2-chloro-N-(5-(2-(((1r,4r)-4-(dimethylamino)cyclohexyl)amino)-8-methylquinazolin-6-yl)-3-fluoro-6-methoxypyridin-2-yl)benzenesulfonamide], the EC50 at IRE1a was under 5 nM.

Regarding `COc1nc(NS(=O)(=O)c2ccccc2Cl)ccc1-c1cc(F)c2nc(N[C@H]3CC[C@H](N(C)C)CC3)ncc2c1` [Compound 148, 2-chloro-N-(5-(2-(((1r,4r)-4-(dimethylamino)cyclohexyl)amino)-8-fluoroquinazolin-6-yl)-6-methoxypyridin-2-yl)benzenesulfonamide], the EC50 at IRE1a was under 5 nM.

Regarding `COc1nc(NS(=O)(=O)c2ccccc2Cl)c(F)cc1-c1ccc2nc(N[C@H]3CC[C@H](N(C)C)CC3)ncc2c1` [Compound 149, 2-chloro-N-(5-(2-(((1r,4r)-4-(dimethylamino)cyclohexyl)amino)quinazolin-6-yl)-3-fluoro-6-methoxypyridin-2-yl)benzenesulfonamide], on IRE1a, the EC50 lay within 5 to 50 nM.

With `CN[C@H]1CC[C@H](Nc2ncc3cc(-c4cc(F)c(NS(=O)(=O)c5ccccc5Cl)nc4OC)ccc3n2)CC1` [Compound 150, 2-chloro-N-(3-fluoro-6-methoxy-5-(2-(((1r,4r)-4-(methylamino)cyclohexyl)amino)quinazolin-6-yl)pyridin-2-yl)benzenesulfonamide], the EC50 on IRE1a was in the range of 5 to 50 nM.

As to `CCc1cc(-c2ccc(NS(=O)(=O)c3ccccc3Cl)nc2C)cc2cnc(N[C@@H]3CC[C@@H](N(C)C)C[C@@H]3F)nc12` [Compound 151, 2-chloro-N-(5-(2-(((1R,2S,4R)-4-(dimethylamino)-2-fluorocyclohexyl)amino)-8-ethylquinazolin-6-yl)-6-methylpyridin-2-yl)benzenesulfonamide], the EC50 at IRE1a was under 5 nM.

Take `CCc1cc(-c2ccc(NS(=O)(=O)c3cccc(Cl)c3Cl)nc2C)cc2cnc(N[C@H]3CC[C@H](N(C)C)CC3)nc12` [Compound 152, 2,3-dichloro-N-(5-(2-(((1r,4r)-4-(dimethylamino)cyclohexyl)amino)-8-ethylquinazolin-6-yl)-6-methylpyridin-2-yl)benzenesulfonamide]: at IRE1a, the EC50 was under 5 nM.

Take `Cc1nc(NS(=O)(=O)c2ccccc2Cl)c(F)cc1-c1ccc2nc(N[C@H]3CC[C@H](N(C)C)CC3)ncc2c1` [Compound 153, 2-chloro-N-(5-(2-(((1r,4r)-4-(dimethylamino)cyclohexyl)amino)quinazolin-6-yl)-3-fluoro-6-methylpyridin-2-yl)benzenesulfonamide]: the EC50 at IRE1a is 5 to 50 nM.

For `CCc1cc(-c2cnc(NS(=O)(=O)c3ccccc3Cl)nc2OC)cc2cnc(NC3CCC(N(C)C)CC3)nc12` (stereo not shown) [Compound 154, 2-chloro-N-(5-(2-(((1r,4r)-4-(dimethylamino)cyclohexyl)amino)-8-ethylquinazolin-6-yl)-4-methoxypyrimidin-2-yl)benzenesulfonamide], the 50% effective concentration (EC50) on IRE1a is under 5 nM.

On to `COc1nc(NS(=O)(=O)c2ccccc2Cl)c(F)cc1-c1cc(F)c2nc(N[C@H]3CC[C@H](N(C)C)CC3)ncc2c1` [Compound 155, 2-chloro-N-(5-(2-(((1r,4r)-4-(dimethylamino)cyclohexyl)amino)-8-fluoroquinazolin-6-yl)-3-fluoro-6-methoxypyridin-2-yl)benzenesulfonamide], for which the EC50 at IRE1a lay within 50 to 100 nM.

Regarding `CCc1cc(-c2ncc(NS(=O)(=O)c3ccccc3Cl)nc2OC)cc2cnc(N[C@H]3CC[C@H](N(C)C)CC3)nc12` [Compound 157, 2-chloro-N-(5-(2-(((1r,4r)-4-(dimethylamino)cyclohexyl)amino)-8-ethylquinazolin-6-yl)-6-methoxypyrazin-2-yl)benzenesulfonamide], the EC50 on IRE1a is under 5 nM.

Turning to `CCc1cc(-c2ccc(NS(=O)(=O)c3cccc(F)c3Cl)nc2C)cc2cnc(N[C@H]3CC[C@H](N(C)C)CC3)nc12` [Compound 158, 2-chloro-N-(5-(2-(((1r,4r)-4-(dimethylamino)cyclohexyl)amino)-8-ethylquinazolin-6-yl)-6-methylpyridin-2-yl)-3-fluorobenzenesulfonamide], the EC50 at IRE1a is under 5 nM.

Regarding `CCc1cc(-c2nnc(NS(=O)(=O)c3ccccc3Cl)cc2OC)cc2cnc(N[C@H]3CC[C@H](N(C)C)CC3)nc12` [Compound 159, 2-chloro-N-(6-(2-(((1r,4r)-4-(dimethylamino)cyclohexyl)amino)-8-ethylquinazolin-6-yl)-5-methoxypyridazin-3-yl)benzenesulfonamide], on IRE1a, the EC50 was 5 to 50 nM.

`CCc1cc(-c2ccc(NS(=O)(=O)c3cccc(C)c3Cl)nc2C)cc2cnc(N[C@H]3CC[C@H](N(C)C)CC3)nc12` [Compound 160, 2-chloro-N-(5-(2-(((1r,4r)-4-(dimethylamino)cyclohexyl)amino)-8-ethylquinazolin-6-yl)-6-methylpyridin-2-yl)-3-methylbenzenesulfonamide]: the EC50 at IRE1a is under 5 nM.

Regarding `CCc1c(F)c(-c2ccc(NS(=O)(=O)c3ccccc3Cl)nc2C)cc2cnc(N[C@H]3CC[C@H](N(C)C)CC3)nc12` [Compound 161, 2-chloro-N-(5-(2-(((1r,4r)-4-(dimethylamino)cyclohexyl)amino)-8-ethyl-7-fluoroquinazolin-6-yl)-6-methylpyridin-2-yl)benzenesulfonamide], the half-maximal effective concentration (EC50) at IRE1a is under 5 nM.

On to `CCc1c(F)c(-c2cc(F)c(NS(=O)(=O)c3ccccc3Cl)nc2C)cc2cnc(N[C@H]3CC[C@H](N(C)C)CC3)nc12` [Compound 162, 2-chloro-N-(5-(2-(((1r,4r)-4-(dimethylamino)cyclohexyl)amino)-8-ethyl-7-fluoroquinazolin-6-yl)-3-fluoro-6-methylpyridin-2-yl)benzenesulfonamide], for which the EC50 on IRE1a is under 5 nM.

In the case of `CCc1c(F)c(-c2cc(F)c(NS(=O)(=O)c3ccccc3Cl)nc2OC)cc2cnc(N[C@H]3CC[C@H](N(C)C)CC3)nc12` [Compound 163, 2-chloro-N-(5-(2-(((1r,4r)-4-(dimethylamino)cyclohexyl)amino)-8-ethyl-7-fluoroquinazolin-6-yl)-3-fluoro-6-methoxypyridin-2-yl)benzenesulfonamide], the concentration giving a half-maximal response (EC50) on IRE1a is under 5 nM.

For orientation: EC50 means the concentration needed to bring the measured effect to its halfway point.
